Measured values as given in patent EP0319644A2, “Alkylated amide derivatives, their use and pharmaceutical compositions containing them” (THE GREEN CROSS CORPORATION, priority 1987, dated 1989).

How the values were obtained:
[1] = test system: water immersed restraint stress ulcerization; assay: Rat water immersed restraint stress ulcerization (Test Example 1); format: in vivo, male Wistar rats; details: dose 5 mg/kg orally 90 minutes before stress loading; for Ulcer Index (Mean ± S.B.): 7 hours immersion at 22 ± 1 °C, suspended in saline containing 10% HCO-60, sum of ulcer lengths per rat; for Inhibition rate (%): versus untreated control
Experimental: Each test compound was suspended in physiological saline containing 10% polyoxyethylene cured caster oil (HCO-60: manufactured by Nikko Chemicals), and was then tested.
(§1) The test was conducted according to the method of rat water immersed restraint stress ulcerization proposed by Okabe et al. (Jpn. J. Pharmacol., 18, 9, (1968)). That is, male Wistar rats weighing 230 to 250 g were fasted for 24 hours, put in a stress cage in the erect position, and were immersed in a thermostatic water tank at 22 ± 1 °C up to the sternal process. The rats were sacrificed 7 hours later, and the stomach was removed. The pylorus was ligated and 10 ml of physiological saline was infused into the stomach. The cardia also was ligated and dipped in 1% formalin for 5 to 10 minutes. Afterwards, the stomach was opened along the greater curvature, and any blood deposited on the mucosa in the glandular portion was wiped off gently. The length of the remaining ulcers (erosions) was measured. The sum (mm) of the length of the ulcers in each rat was defined as the ulcer index. The test material was administered orally 90 minutes before stress loading (dose: 5 mg/kg).

[2] = test system: water immersed restraint stress ulcerization; assay: Rat water immersed restraint stress ulcerization, gum arabic preparation (Test Example 2); format: in vivo, Male Wister rats; details: for Ulcer Index (Mean ± S.B.) / Inhibition rate (%): dose 25 mg/kg orally, preparation with 5% gum arabic (2 ml/kg); for Ulcer Index (Mean ± S.B.): rats fasted overnight; for Inhibition rate (%): versus control; for antiulcer activity: summary in words of Table 2, no significant difference between the two compounds
Experimental: as §1
Male Wister rats weighing 200 to 220 g were fasted overnight and the preparation containing Compound 2 (S-(2-cyclohexylethyl)-N-(2-decenoyl) cysteamine) and 5% gum arabic or the preparation containing the S-oxide derivarive of Compound 2 (S-(2-cyclohexylethyl)-N-(2-decenoyl) cysteamine S-oxide) and 5% gum arabic was orally administered to each rat (2 ml/kg).
Antiulcer activity of each test compound was evaluated in the same manner as in Test Example 1.

Structure (SMILES) | Ulcer Index (Mean ± S.B.) [1] | Inhibition rate (%) [1] | Ulcer Index (Mean ± S.B.) [2] | Inhibition rate (%) [2] | antiulcer activity [2]
CCCCCCCC=CC(=O)NCCSCCC1CCCCC1 [Compound 2, S-(cyclohexylethyl)-N-(2-decenoyl) cysteamine] | 6.7 ± 1.7 mm | 69.5% | 10.0 ± 1.5 mm | 58.0% | excellent antiulcer activity
CCCCCCC/C=C/C(=O)NCCSCC1CCCCN1C (stereo not drawn) [Compound 8, N-(2-decenoyl)-S-[(1-methylpiperidyl)methyl] cysteamine] | 8.0 ± 1.7 mm | 63.6% |  |  | 
CCCCCCCC=CC(=O)NCC[S+]([O-])CCC1CCCCC1 (stereo not drawn) [S-oxide of Compound 2, S-(2-cyclohexylethyl)-N-(2-decenoyl) cysteamine S-oxide] |  |  | 12.8 ± 1.9 mm | 46.2% | excellent antiulcer activity
